Results: patent US20110086759A1, “CHEMICAL COMPOUNDS” (SYNGENTA CROP PROTECTION, INC., priority 2007, published 2011)

Assays:
Assay type in all cases: in vivo
Solanum nigrum (SOLNI) [1] = test: Post-emergence biological efficacy, glasshouse pot test; settings: 312 h, Rate 1,000 g/ha, post-emergence spray, evaluated after 13 days (100=total damage to plant; 0=no damage to plant), read-out: Percentage damage caused to weed species, post-emergence, SOLNI
How it was run: (§1)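 Pot-grown weeds were sprayed 8 days after sowing with test compound in acetone/water (50:50) with 0.5% Tween 20 at 1000 or 250 g/ha. Glasshouse at 24/16° C day/night, 14 h light, 65% humidity. Damage scored 0-100 (100 = total damage) after 13 days.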

[2] = system: Amaranthus retoflexus (AMARE); test: as above; settings: Amaranthus retroflexus, 312 h; Rate 1,000 g/ha; post-emergence spray; evaluated after 13 days (100=total damage to plant; 0=no damage to plant); read-out: Percentage damage caused to weed species, post-emergence, AMARE
How it was run: as §1

[3] = system: Echinochloa crus-galli (ECHCG); test: as above; settings: 312 h, Rate 1,000 g/ha, post-emergence spray, evaluated after 13 days (100=total damage to plant; 0=no damage to plant), read-out: Percentage damage caused to weed species, post-emergence, ECHCG
How it was run: as §1

[4] = system: Ipomea hederaceae (IPOHE); test: as above; settings: Ipomoea hederacea, 312 h; Rate 1,000 g/ha; post-emergence spray; evaluated after 13 days (100=total damage to plant; 0=no damage to plant); read-out: Percentage damage caused to weed species, post-emergence, IPOHE
How it was run: as §1

[5] = system: Alopecurus myosuroides (ALOMY); test: as above; settings: 312 h, Rate 1,000 g/ha, post-emergence spray, evaluated after 13 days (100=total damage to plant; 0=no damage to plant), read-out: Percentage damage caused to weed species, post-emergence, ALOMY
How it was run: as §1

Setaria faberi (SETFA) [6] = test: as above; settings: 312 h, Rate 1,000 g/ha, post-emergence spray, evaluated after 13 days (100=total damage to plant; 0=no damage to plant), read-out: Percentage damage caused to weed species, post-emergence, SETFA
How it was run: as §1

Solanum nigrum (SOLNI) [7] = test: Pre-emergence biological efficacy, glasshouse pot test; settings: 312 h, pre-emergence, rate 1,000 g/ha, evaluated after 13 days (100=total damage to plant; 0=no damage), read-out: Percentage damage caused to weed species, SOLNI
How it was run: (§2)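 Visual phytotoxicity (0 no damage, 100 total damage) assessed 13 d after treatment. Soil-sown pots sprayed one day post-sowing; dose 1000 or 250 g/ha; formulation in acetone/water 50:50, 0.5% Tween 20.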

[8] = system: Amaranthus retoflexus (AMARE); test: as above; settings: Amaranthus retroflexus, 312 h; pre-emergence, rate 1,000 g/ha, evaluated after 13 days (100=total damage to plant; 0=no damage); read-out: Percentage damage caused to weed species, AMARE
How it was run: as §2

[9] = system: Echinochloa crus-galli (ECHCG); test: as above; settings: 312 h, pre-emergence, rate 1,000 g/ha, evaluated after 13 days (100=total damage to plant; 0=no damage), read-out: Percentage damage caused to weed species, ECHCG
How it was run: as §2

[10] = system: Ipomea hederaceae (IPOHE); test: as above; settings: Ipomoea hederacea, 312 h; pre-emergence, rate 1,000 g/ha, evaluated after 13 days (100=total damage to plant; 0=no damage); read-out: Percentage damage caused to weed species, IPOHE
How it was run: as §2

[11] = system: Alopecurus myosuroides (ALOMY); test: as above; settings: 312 h, pre-emergence, rate 1,000 g/ha, evaluated after 13 days (100=total damage to plant; 0=no damage), read-out: Percentage damage caused to weed species, ALOMY
How it was run: as §2

Setaria faberi (SETFA) [12] = test: as above; settings: 312 h, pre-emergence, rate 1,000 g/ha, evaluated after 13 days (100=total damage to plant; 0=no damage), read-out: Percentage damage caused to weed species, SETFA
How it was run: as §2

With `COC(=O)c1nc(C2CC2)nc(N(CCC#N)Cc2ccco2)c1Cl` [Compound 161-125, 5-Chloro-4-[N-(2-cyanoethyl)-N-furan-2-ylmethyl-amino]-2-cyclo-propyl-6-methoxy-carbonylpyrimidine] as the compound, how does the pest or weed control at 1000 g/ha (Solanum nigrum (SOLNI) [1]) read?
The pest or weed control at 1000 g/ha was 50%.

And the pest or weed control at 1000 g/ha [2]?
Its pest or weed control at 1000 g/ha is 80%.

And the pest or weed control at 1000 g/ha [3]?
Its pest or weed control at 1000 g/ha is 10%.

What about the pest or weed control at 1000 g/ha [4] of the same compound?
The pest or weed control at 1000 g/ha was 40%.

And the pest or weed control at 1000 g/ha [5]?
The pest or weed control at 1000 g/ha was 0%.

And the pest or weed control at 1000 g/ha (Setaria faberi (SETFA) [6])?
The pest or weed control at 1000 g/ha was 40%.

What about the pest or weed control at 1000 g/ha (Solanum nigrum (SOLNI) [7]) of the same compound?
The pest or weed control at 1000 g/ha was 30%.

What about the pest or weed control at 1000 g/ha [8] of the same compound?
The pest or weed control at 1000 g/ha was 100%.

And the pest or weed control at 1000 g/ha [9]?
The pest or weed control at 1000 g/ha was 20%.

What about the pest or weed control at 1000 g/ha [10] of the same compound?
The pest or weed control at 1000 g/ha was 80%.

What about the pest or weed control at 1000 g/ha [11] of the same compound?
Its pest or weed control at 1000 g/ha is 20%.

What about the pest or weed control at 1000 g/ha (Setaria faberi (SETFA) [12]) of the same compound?
The pest or weed control at 1000 g/ha was 0%.

Which pest or weed control at 1000 g/ha (Solanum nigrum (SOLNI) [1]) does the source give for `CCOC(=O)CCN(Cc1ccccc1)c1nc(C2CC2)nc(C(=O)OC)c1Cl` [Compound 162-60, 5-Chloro-2-cyclopropyl-4-[N-(2-ethoxycarbonyl-ethyl)-N-phenylmethyl-amino]-6-methoxycarbonyl-pyrimidine] here?
The pest or weed control at 1000 g/ha was 60%.

And the pest or weed control at 1000 g/ha [2]?
The pest or weed control at 1000 g/ha was 80%.

And the pest or weed control at 1000 g/ha [3]?
The pest or weed control at 1000 g/ha was 0%.

What about the pest or weed control at 1000 g/ha [4] of the same compound?
Its pest or weed control at 1000 g/ha is 70%.

And the pest or weed control at 1000 g/ha [5]?
Its pest or weed control at 1000 g/ha is 10%.

And the pest or weed control at 1000 g/ha (Setaria faberi (SETFA) [6])?
The pest or weed control at 1000 g/ha was 0%.

And the pest or weed control at 1000 g/ha (Solanum nigrum (SOLNI) [7])?
Its pest or weed control at 1000 g/ha is 20%.

What about the pest or weed control at 1000 g/ha [8] of the same compound?
Its pest or weed control at 1000 g/ha is 40%.

And the pest or weed control at 1000 g/ha [9]?
Its pest or weed control at 1000 g/ha is 20%.

What about the pest or weed control at 1000 g/ha [10] of the same compound?
Its pest or weed control at 1000 g/ha is 70%.

What about the pest or weed control at 1000 g/ha [11] of the same compound?
Its pest or weed control at 1000 g/ha is 10%.

What about the pest or weed control at 1000 g/ha (Setaria faberi (SETFA) [12]) of the same compound?
Its pest or weed control at 1000 g/ha is 0%.

For `C=Cc1ccc(-c2c(NCc3ccco3)nc(C3CC3)nc2C(=O)OC)cc1` [Compound 187-125, 2-Cyclopropyl-5-(4-ethenylphenyl)-4-(furan-2-ylmethylamino)-6-methoxycarbonyl-pyrimidine], which pest or weed control at 1000 g/ha (Solanum nigrum (SOLNI) [1]) is on record?
The pest or weed control at 1000 g/ha was 50%.

And the pest or weed control at 1000 g/ha [2]?
Its pest or weed control at 1000 g/ha is 70%.

What about the pest or weed control at 1000 g/ha [3] of the same compound?
The pest or weed control at 1000 g/ha was 0%.

And the pest or weed control at 1000 g/ha [4]?
Its pest or weed control at 1000 g/ha is 40%.

And the pest or weed control at 1000 g/ha [5]?
Its pest or weed control at 1000 g/ha is 0%.

What about the pest or weed control at 1000 g/ha (Setaria faberi (SETFA) [6]) of the same compound?
Its pest or weed control at 1000 g/ha is 0%.

And the pest or weed control at 1000 g/ha (Solanum nigrum (SOLNI) [7])?
The pest or weed control at 1000 g/ha was 0%.

And the pest or weed control at 1000 g/ha [8]?
The pest or weed control at 1000 g/ha was 0%.

What about the pest or weed control at 1000 g/ha [9] of the same compound?
Its pest or weed control at 1000 g/ha is 0%.

What about the pest or weed control at 1000 g/ha [10] of the same compound?
Its pest or weed control at 1000 g/ha is 0%.

What about the pest or weed control at 1000 g/ha [11] of the same compound?
Its pest or weed control at 1000 g/ha is 0%.

What about the pest or weed control at 1000 g/ha (Setaria faberi (SETFA) [12]) of the same compound?
Its pest or weed control at 1000 g/ha is 0%.

Which results are given for `CC(C)OC(=O)c1nc(C2CC2)nc(NCc2ccco2)c1Cl` [Compound 197-125, 5-Chloro-2-cyclo-propyl-4-(2-furanylmethyl-amino)-6-iso-propoxycarbonyl-pyrimidine]?
pest or weed control at 1000 g/ha (Solanum nigrum (SOLNI) [1]): 100%; pest or weed control at 1000 g/ha [2]: 100%; pest or weed control at 1000 g/ha [3]: 70%; pest or weed control at 1000 g/ha [4]: 100%; pest or weed control at 1000 g/ha [5]: 50%; pest or weed control at 1000 g/ha (Setaria faberi (SETFA) [6]): 100%; pest or weed control at 1000 g/ha (Solanum nigrum (SOLNI) [7]): 90%; pest or weed control at 1000 g/ha [8]: 100%; pest or weed control at 1000 g/ha [9]: 70%; pest or weed control at 1000 g/ha [10]: 100%; pest or weed control at 1000 g/ha [11]: 50%; pest or weed control at 1000 g/ha (Setaria faberi (SETFA) [12]): 70%

For `CCCOC(=O)c1nc(C2CC2)nc(NCc2ccco2)c1Cl` [Compound 198-125, 5-chloro-2-cyclopropyl-4-[(furan-2-ylmethyl)-amino]-6-^npropoxycarbonylpyrimidine], which pest or weed control at 1000 g/ha (Solanum nigrum (SOLNI) [1]) is on record?
The pest or weed control at 1000 g/ha was 90%.

What about the pest or weed control at 1000 g/ha [2] of the same compound?
Its pest or weed control at 1000 g/ha is 100%.

And the pest or weed control at 1000 g/ha [3]?
The pest or weed control at 1000 g/ha was 80%.

And the pest or weed control at 1000 g/ha [4]?
The pest or weed control at 1000 g/ha was 100%.

And the pest or weed control at 1000 g/ha [5]?
Its pest or weed control at 1000 g/ha is 40%.

What about the pest or weed control at 1000 g/ha (Setaria faberi (SETFA) [6]) of the same compound?
Its pest or weed control at 1000 g/ha is 90%.

What about the pest or weed control at 1000 g/ha (Solanum nigrum (SOLNI) [7]) of the same compound?
The pest or weed control at 1000 g/ha was 100%.

And the pest or weed control at 1000 g/ha [8]?
Its pest or weed control at 1000 g/ha is 100%.

And the pest or weed control at 1000 g/ha [9]?
The pest or weed control at 1000 g/ha was 80%.

And the pest or weed control at 1000 g/ha [10]?
The pest or weed control at 1000 g/ha was 100%.

And the pest or weed control at 1000 g/ha [11]?
Its pest or weed control at 1000 g/ha is 40%.

And the pest or weed control at 1000 g/ha (Setaria faberi (SETFA) [12])?
The pest or weed control at 1000 g/ha was 80%.

Which results are given for `CC(C)COC(=O)c1nc(C2CC2)nc(NCc2ccco2)c1Cl` [Compound 199-125, 5-Chloro-2-cyclopropyl-4-(2-furanylmethyl-amino)-6-iso-butoxycarbonyl-pyrimidine]?
pest or weed control at 1000 g/ha (Solanum nigrum (SOLNI) [1]): 80%; pest or weed control at 1000 g/ha [2]: 100%; pest or weed control at 1000 g/ha [3]: 70%; pest or weed control at 1000 g/ha [4]: 100%; pest or weed control at 1000 g/ha [5]: 20%; pest or weed control at 1000 g/ha (Setaria faberi (SETFA) [6]): 70%; pest or weed control at 1000 g/ha (Solanum nigrum (SOLNI) [7]): 100%; pest or weed control at 1000 g/ha [8]: 100%; pest or weed control at 1000 g/ha [9]: 50%; pest or weed control at 1000 g/ha [10]: 100%; pest or weed control at 1000 g/ha [11]: 40%; pest or weed control at 1000 g/ha (Setaria faberi (SETFA) [12]): 80%
